Tests used:
Streptococcus agalactiae [1] = assay: Number of strains detected as a function of the concentration of α-glucosidase substrate; type: cell-based; conditions: positive when I≧0.6, 8 strains
Text: The above protocol was repeated, with the exception that the concentration of enzymatic substrate was varied.
Table 2 below gives the number of strains detected (considered to be positive when I≧0.6) as a function of the concentration of substrate.

Streptococcus agalactiae [2] = assay: Detection of Streptococcus agalactiae strains on reaction media containing an α-glucosidase enzymatic substrate; type: cell-based; conditions: substrate 0.1 g/l; for intensity (I) of coloration: arbitrary scale 0 to 4
Experimental: The reaction media were prepared by mixing heart-brain extract (4.84 g/l; Solabia), meat infusion (1.96 g/l; Solabia), biothione (1 g/l; Solabia), biotrypcase (7.2 g/l; Solabia), sodium carbonate (0.3 g/l; VWR), sodium pyruvate (2 g/l; Fluka), HEPES buffer (0.4 g/l; Sigma), lactalbumin peptone (2 g/l; DMV), glucose (1 g/l; Merck), American agar (2 g/l; Sobigel) and European agar (12 g/l; Roko).
The media were then poured into a Petri dish for subsequent inoculation with bacterial strains.
Eight Streptococcus agalactiae strains derived from the applicant's collection, suspended in physiological saline, were inoculated so as to give isolated colonies on each of the media. The dishes were then incubated at 37° C. for 48 hours. The colonies formed are examined visually after 18, 24 and more than 40 hours of incubation. The coloration of these colonies, the growth and also the intensity of this coloration were noted.
The results are given in table 1 below and are expressed: • in terms of growth (G) with the size being indicated in mm, • in terms of intensity (1) of coloration based on an arbitrary scale ranging from 0 to 4, 0 corresponding to an absence of activity and 4 corresponding to the presence of a very intense coloration, • in terms of color (Co) with T=turquoise, R=pink or red, Gr=green, Mg=magenta, • according to the incubation time in hours (T).

[3] = substrate 100 mg/l, incubation 24 h
[4] = substrate 100 mg/l, incubation 48 h
[5] = substrate 200 mg/l, incubation 24 h
[6] = substrate 200 mg/l, incubation 48 h
[7] = substrate 300 mg/l, incubation 24 h
[8] = substrate 300 mg/l, incubation 48 h
[9] = strain 0008200, 18 h incubation
[10] = strain 0008200, 24 h incubation
[11] = strain 0008200, >40 h incubation
[12] = strain 0008206, 18 h incubation
[13] = strain 0008206, 24 h incubation
[14] = strain 0008206, >40 h incubation
[15] = strain 0101060, 18 h incubation
[16] = strain 0101060, 24 h incubation
[17] = strain 0101060, >40 h incubation
[18] = strain 7611003, 18 h incubation
[19] = strain 7611003, 24 h incubation
[20] = strain 7611003, >40 h incubation
[21] = strain 7701031, 18 h incubation
[22] = strain 7701031, 24 h incubation
[23] = strain 7701031, >40 h incubation
[24] = strain 7702055, 18 h incubation
[25] = strain 7702055, 24 h incubation
[26] = strain 7702055, >40 h incubation
[27] = strain 8709013, 18 h incubation
[28] = strain 8709013, 24 h incubation
[29] = strain 8709013, >40 h incubation
[30] = strain 8904053, 18 h incubation
[31] = strain 8904053, 24 h incubation
[32] = strain 8904053, >40 h incubation

In the case of “5-bromo-4-chloro-3-indolyl-α-D-glucopyranoside [X-alpha-Glu]”, the “number of strains detected” value (Streptococcus agalactiae [1]; [3]) was 3/8, the “number of strains detected” value (Streptococcus agalactiae [1]; [4]) was 7/8 and the “number of strains detected” value (Streptococcus agalactiae [1]; [5]) was 7/8. The “number of strains detected” value (Streptococcus agalactiae [1]; [6]) was 7/8, the “number of strains detected” value (Streptococcus agalactiae [1]; [7]) was 7/8 and the “number of strains detected” value (Streptococcus agalactiae [1]; [8]) was 7/8. For the same substance, the “intensity (I) of coloration” value (Streptococcus agalactiae [2]; strain 0008200, 18 h) was 0.3, the “growth (G), size” value (Streptococcus agalactiae [2]; [9]) was 0.7 mm and the “intensity (I) of coloration” value (Streptococcus agalactiae [2]; strain 0008200, 24 h) was 0.6. The “growth (G), size” value (Streptococcus agalactiae [2]; [10]) was 0.7 mm, the “intensity (I) of coloration” value (Streptococcus agalactiae [2]; strain 0008200, >40 h) was 2.3 and the “growth (G), size” value (Streptococcus agalactiae [2]; [11]) was 0.8 mm. The “intensity (I) of coloration” value (Streptococcus agalactiae [2]; strain 0008206, 18 h) was 0.3, the “growth (G), size” value (Streptococcus agalactiae [2]; [12]) was 0.7 mm and the “intensity (I) of coloration” value (Streptococcus agalactiae [2]; strain 0008206, 24 h) was 1. The “growth (G), size” value (Streptococcus agalactiae [2]; [13]) was 0.7 mm, the “intensity (I) of coloration” value (Streptococcus agalactiae [2]; strain 0008206, >40 h) was 2 and the “growth (G), size” value (Streptococcus agalactiae [2]; [14]) was 0.8 mm. For the same substance, the “intensity (I) of coloration” value (Streptococcus agalactiae [2]; strain 0101060, 18 h) was 2.7, the “growth (G), size” value (Streptococcus agalactiae [2]; [15]) was 0.4 mm and the “intensity (I) of coloration” value (Streptococcus agalactiae [2]; strain 0101060, 24 h) was 3. For the same substance, the “growth (G), size” value (Streptococcus agalactiae [2]; [16]) was 0.5 mm, the “intensity (I) of coloration” value (Streptococcus agalactiae [2]; strain 0101060, >40 h) was 4 and the “growth (G), size” value (Streptococcus agalactiae [2]; [17]) was 0.7 mm. For the same substance, the “intensity (I) of coloration” value (Streptococcus agalactiae [2]; strain 7611003, 18 h) was 2.3, the “growth (G), size” value (Streptococcus agalactiae [2]; [18]) was 1 mm and the “intensity (I) of coloration” value (Streptococcus agalactiae [2]; strain 7611003, 24 h) was 2.7. For the same substance, the “growth (G), size” value (Streptococcus agalactiae [2]; [19]) was 1.2 mm, the “intensity (I) of coloration” value (Streptococcus agalactiae [2]; strain 7611003, >40 h) was 3 and the “growth (G), size” value (Streptococcus agalactiae [2]; [20]) was 1.5 mm. For the same substance, the “growth (G), size” value (Streptococcus agalactiae [2]; [21]) was 0.5 mm, the “growth (G), size” value (Streptococcus agalactiae [2]; [22]) was 0.7 mm and the “growth (G), size” value (Streptococcus agalactiae [2]; [23]) was 1.2 mm. For the same substance, the “intensity (I) of coloration” value (Streptococcus agalactiae [2]; strain 7702055, 18 h) was 0.5, the “growth (G), size” value (Streptococcus agalactiae [2]; [24]) was 0.7 mm and the “intensity (I) of coloration” value (Streptococcus agalactiae [2]; strain 7702055, 24 h) was 1. For the same substance, the “growth (G), size” value (Streptococcus agalactiae [2]; [25]) was 1 mm, the “intensity (I) of coloration” value (Streptococcus agalactiae [2]; strain 7702055, >40 h) was 3 and the “growth (G), size” value (Streptococcus agalactiae [2]; [26]) was 1.7 mm. For the same substance, the “intensity (I) of coloration” value (Streptococcus agalactiae [2]; strain 8709013, 18 h) was 0.1, the “growth (G), size” value (Streptococcus agalactiae [2]; [27]) was 0.4 mm and the “intensity (I) of coloration” value (Streptococcus agalactiae [2]; strain 8709013, 24 h) was 0.6. The “growth (G), size” value (Streptococcus agalactiae [2]; [28]) was 0.5 mm, the “intensity (I) of coloration” value (Streptococcus agalactiae [2]; strain 8709013, >40 h) was 2 and the “growth (G), size” value (Streptococcus agalactiae [2]; [29]) was 0.7 mm. The “intensity (I) of coloration” value (Streptococcus agalactiae [2]; strain 8904053, 18 h) was 0.3, the “growth (G), size” value (Streptococcus agalactiae [2]; [30]) was 0.7 mm and the “intensity (I) of coloration” value (Streptococcus agalactiae [2]; strain 8904053, 24 h) was 0.6. For the same substance, the “growth (G), size” value (Streptococcus agalactiae [2]; [31]) was 0.7 mm, the “intensity (I) of coloration” value (Streptococcus agalactiae [2]; strain 8904053, >40 h) was 2.3 and the “growth (G), size” value (Streptococcus agalactiae [2]; [32]) was 0.8 mm.
In the case of “5-bromo-6-chloro-3-indolyl-α-D-glucopyranoside [Magenta-alpha-Glu]”, the “number of strains detected” value (Streptococcus agalactiae [1]; [3]) was 2/8, the “number of strains detected” value (Streptococcus agalactiae [1]; [4]) was 8/8 and the “number of strains detected” value (Streptococcus agalactiae [1]; [5]) was 7/8. For the same substance, the “number of strains detected” value (Streptococcus agalactiae [1]; [6]) was 8/8, the “number of strains detected” value (Streptococcus agalactiae [1]; [7]) was 7/8 and the “number of strains detected” value (Streptococcus agalactiae [1]; [8]) was 8/8. The “intensity (I) of coloration” value (Streptococcus agalactiae [2]; strain 0008200, 18 h) was 0.5, the “growth (G), size” value (Streptococcus agalactiae [2]; [9]) was 0.5 mm and the “intensity (I) of coloration” value (Streptococcus agalactiae [2]; strain 0008200, 24 h) was 0.8. For the same substance, the “growth (G), size” value (Streptococcus agalactiae [2]; [10]) was 0.5 mm, the “intensity (I) of coloration” value (Streptococcus agalactiae [2]; strain 0008200, >40 h) was 3 and the “growth (G), size” value (Streptococcus agalactiae [2]; [11]) was 0.5 mm. The “intensity (I) of coloration” value (Streptococcus agalactiae [2]; strain 0008206, 18 h) was 0.6, the “growth (G), size” value (Streptococcus agalactiae [2]; [12]) was 0.7 mm and the “intensity (I) of coloration” value (Streptococcus agalactiae [2]; strain 0008206, 24 h) was 0.8. For the same substance, the “growth (G), size” value (Streptococcus agalactiae [2]; [13]) was 0.7 mm, the “intensity (I) of coloration” value (Streptococcus agalactiae [2]; strain 0008206, >40 h) was 3 and the “growth (G), size” value (Streptococcus agalactiae [2]; [14]) was 0.7 mm. The “intensity (I) of coloration” value (Streptococcus agalactiae [2]; strain 0101060, 18 h) was 2.7, the “growth (G), size” value (Streptococcus agalactiae [2]; [15]) was 0.4 mm and the “intensity (I) of coloration” value (Streptococcus agalactiae [2]; strain 0101060, 24 h) was 2.7. The “growth (G), size” value (Streptococcus agalactiae [2]; [16]) was 0.4 mm, the “intensity (I) of coloration” value (Streptococcus agalactiae [2]; strain 0101060, >40 h) was 4 and the “growth (G), size” value (Streptococcus agalactiae [2]; [17]) was 0.5 mm. The “intensity (I) of coloration” value (Streptococcus agalactiae [2]; strain 7611003, 18 h) was 1, the “growth (G), size” value (Streptococcus agalactiae [2]; [18]) was 0.5 mm and the “intensity (I) of coloration” value (Streptococcus agalactiae [2]; strain 7611003, 24 h) was 2. The “growth (G), size” value (Streptococcus agalactiae [2]; [19]) was 0.7 mm, the “intensity (I) of coloration” value (Streptococcus agalactiae [2]; strain 7611003, >40 h) was 3 and the “growth (G), size” value (Streptococcus agalactiae [2]; [20]) was 0.7 mm. The “growth (G), size” value (Streptococcus agalactiae [2]; [21]) was 0.5 mm, the “growth (G), size” value (Streptococcus agalactiae [2]; [22]) was 0.5 mm and the “intensity (I) of coloration” value (Streptococcus agalactiae [2]; strain 7701031, >40 h) was 2. The “growth (G), size” value (Streptococcus agalactiae [2]; [23]) was 0.8 mm, the “intensity (I) of coloration” value (Streptococcus agalactiae [2]; strain 7702055, 18 h) was 0.5 and the “growth (G), size” value (Streptococcus agalactiae [2]; [24]) was 0.5 mm. The “intensity (I) of coloration” value (Streptococcus agalactiae [2]; strain 7702055, 24 h) was 0.6, the “growth (G), size” value (Streptococcus agalactiae [2]; [25]) was 0.8 mm and the “intensity (I) of coloration” value (Streptococcus agalactiae [2]; strain 7702055, >40 h) was 3. For the same substance, the “growth (G), size” value (Streptococcus agalactiae [2]; [26]) was 1 mm, the “intensity (I) of coloration” value (Streptococcus agalactiae [2]; strain 8709013, 18 h) was 0.5 and the “growth (G), size” value (Streptococcus agalactiae [2]; [27]) was 0.4 mm. The “intensity (I) of coloration” value (Streptococcus agalactiae [2]; strain 8709013, 24 h) was 1.3, the “growth (G), size” value (Streptococcus agalactiae [2]; [28]) was 0.5 mm and the “intensity (I) of coloration” value (Streptococcus agalactiae [2]; strain 8709013, >40 h) was 2.7. The “growth (G), size” value (Streptococcus agalactiae [2]; [29]) was 0.7 mm, the “intensity (I) of coloration” value (Streptococcus agalactiae [2]; strain 8904053, 18 h) was 0.6 and the “growth (G), size” value (Streptococcus agalactiae [2]; [30]) was 0.7 mm. The “intensity (I) of coloration” value (Streptococcus agalactiae [2]; strain 8904053, 24 h) was 0.6, the “growth (G), size” value (Streptococcus agalactiae [2]; [31]) was 0.7 mm and the “intensity (I) of coloration” value (Streptococcus agalactiae [2]; strain 8904053, >40 h) was 3. The “growth (G), size” value (Streptococcus agalactiae [2]; [32]) was 0.7 mm.
